Measurements taken from patent US20160271139A1, “METHOD FOR NON-TOXIC TREATMENT FOR DRUG WITHDRAWAL” (DEMERX, INC., priority 2013, published 2016).

Legend:
[1] = Plasma noribogaine glucuronide pharmacokinetics in healthy volunteers (Example 7); assay type: in vivo; conditions: human plasma; for AUC0-216 / AUC0-∞ / Cmax / Tmax / t1/2: mean
[2] = test system: Sprague-Dawley rats; assay: Fourteen day repeat dose toxicity in rats; assay type: in vivo, rat
Method: This study was conducted to evaluate the toxicity profile of noribogaine-HCl following oral (gavage) administration to the rat for 14 days following Table 2 below:
Male and female Sprague-Dawley rats, 10/sex/group, were administered 0, 25, 50 or 100 mg/kg noribogaine HCl daily by single oral gavage for 14 days. An additional 5 rats/sex/group in the 0 (control) and 100 mg/kg groups were retained for a 28 day recovery period during which no drug was administered. Six rats/sex/group (3 rats/sex controls) were similarly dosed and sampled on study days 1 and 14 for analysis of noribogaine-HCl concentrations in the blood.

[3] = test system: Sprague-Dawley rat; assay: Single dose toxicity in rats; assay type: in vivo; conditions: male rats
Method: The objective of this study was to determine the toxicity and toxicokinetic profile of noribogaine HCl following a single oral (gavage) administration in the Sprague-Dawley rat. A single dose of 100, 300 and 800 mg/kg (achieved with doses of 400 mg/kg 3 h+/−30 min apart because of the limitations of maximum dose formulation concentration). Five male rats/group were used. […] Hypoactivity, vocalization, chewing movements, changes in respiration/posture, salivation, stimuli sensitivity, tremors, twitches and penile erection occurred prior to death. […] The NOAEL was determined to be 100 mg/kg.

[4] = Human pharmacokinetic study, single oral dose, serum levels (Example 6); assay type: in vivo; conditions: fasting healthy volunteers, single oral tablet 3, 10, 30 or 60 mg
Method: In double blind studies, fasting healthy volunteers (6 per cohort) were treated once orally with a tablet of noribogaine HCl. In escalating cohorts, the volunteers received 3 mg, 10 mg, 30 mg or 60 mg noribogaine.

[5] = test system: dogs; assay: Fourteen day repeat dose toxicity in dogs; assay type: in vivo, dog
Method: The objective of this study was to determine the toxicity profile of noribogaine HCl given following oral (gavage) administration to dogs for 14 days according to the following Table 3 below:
Noribogaine HCl was administered to groups of 4 male and 4 female dogs by single oral gavage daily for 14 days at doses of 0, 0.5, 1.0 and 5.0 mg/kg/day. An additional group of 4 male and 4 female dogs received either the vehicle control or 5.0 mg/kg/day for 14 days and were held for an additional 28 days after cessation of dosing to assess recovery from any potential drug-induced changes. The study was conducted under GLP guidelines and included comprehensive examinations of clinical signs, body weight, clinical pathology parameters, ophthalmologic examinations. ECG recordings and analyses of plasma for bioanalytical measurement of drug levels at appropriate intervals during the study. At the termination of the dosing phase and at the termination of the recovery phase, all dogs were subjected to a complete post-mortem examination including gross examination of major organs and histologic examination of an extensive list of tissues. Additional sections of brain were obtained from cerebrum, cerebellus, brain stem and spinal cord and examined histologically to evaluate potential effects on brain histopathology. In addition, these sections were examined with immunohistochemical stains for GFAP for evidence of gliosis and Calbindin for a more comprehensive examination of cerebellar Purkinje cells.

[6] = after single oral 30 mg noribogaine (n = 6)
[7] = after single oral 60 mg noribogaine (n = 6)

For `CC[C@H]1C[C@@H]2C[C@H]3c4[nH]c5ccc(OC6OC(C(=O)O)C(O)C(O)C6O)cc5c4CCN(C2)[C@@H]13` (some centres unmarked) [Noribogaine glucuronide, noribogaine glucuronide], the Mean half-life ([1]; 30 mg and 60 mg dose groups) was 21 to 23 h, the “Time of peak concentrations after noribogaine dosing” value ([1]; 30 mg and 60 mg dose groups) was 3 to 4 h and the “Time by which detected in all subjects” value ([1]; 30 mg and 60 mg noribogaine dose groups) was ≤ 0.75 h. The AUC0-216 [1, 6] was 0.0257 µg·h/mL, the “AUC0-∞” value [1, 6] was 0.0258 µg·h/mL and the Cmax [1, 6] was 1.8 ng/mL. It also gave a Tmax [1, 6] of 3.0 h, a t1/2 [1, 6] of 20.6 h and an AUC0-216 [1, 7] of 0.065 µg·h/mL. For the same compound, the “AUC0-∞” value [1, 7] was 0.0671 µg·h/mL, the Cmax [1, 7] was 4.1 ng/mL and the Tmax [1, 7] was 3.8 h. For the same compound, the t1/2 [1, 7] was 23.1 h and the “Proportion of noribogaine glucuronide Cmax and AUC relative to noribogaine” value ([1]; both dose groups (30 mg, 60 mg)) was 3-4%.
With `CC[C@@H]1C[C@H]2CC3c4[nH]c5ccc(O)cc5c4CCN(C2)C31.Cl` [noribogaine HCl] the “Effects on mortality, clinical signs, ophthalmoscopy, hematology, coagulation parameters, clinical chemistry, urinalysis, gross necropsy or histopathology” value ([2]; rats, 25, 50 or 100 mg/kg daily oral gavage for 14 days) was “no test article-related effects”, the “Brain sections stained for GFAP or Calbindin” value ([2]; rats, 14 days oral gavage) was “No treatment-related differences in the brain” and the NOAEL ([2]; rats, 14 days oral gavage, highest dose tested) was 100 mg/kg. It also gave a Body weight change ([2]; rats, females, high dose 100 mg/kg, 14 days) of −2.6%, a Food consumption change ([2]; rats, males and females, high dose 100 mg/kg, 14 days) of −4.7% and a Body weight change ([2]; rats, males, high dose 100 mg/kg, 14 days) of −5.5%. For the same compound, the Liver weight ([2]; rats, mid- and high dose groups (50, 100 mg/kg), 14 days, not correlated with histopathologic changes, considered incidental) was “Minor increases in liver weight”, the NOAEL ([3]; single oral gavage) was 100 mg/kg and the Treatment related signs ([3]; single oral gavage 100 mg/kg) was “did not show any treatment related signs”. The “Rats with hypoactivity, vocalization, salivation, stimuli sensitivity, loss of limb function and lying on the cage floor persisting until Day 2” value ([3]; single oral gavage 300 mg/kg) was 3/5, the Mortality ([3]; single oral gavage 800 mg/kg (2 x 400 mg/kg 3 h apart), approximately 2-3 h after second dose) was “Mortality occurred in all male rats” and the Adverse effects [4] was “no clinically relevant adverse effects were observed”. The “Linearity of pharmacokinetic parameters” value [4] was “All parameters were linear”, the “Lacrimal gland change in recovery group” value ([5]; dogs, 5 mg/kg/day 14 days, then 28 days off drug) was “clear evidence of regeneration” and the “Lacrimal gland changes (only target tissue)” value ([5]; dogs, 5 mg/kg/day, 14 days) was “slight to moderate atrophy and degeneration of the acinar cells”. The “Adverse effect in clinical observations, body weights, clinical pathological parameters, ophthalmologic examinations, ECG recordings, or gross lesions at necropsy” value ([5]; dogs, 0.5, 1.0 and 5.0 mg/kg/day oral gavage 14 days, dosing or recovery phase) was “No evidence of adverse effect”, the “Drug-induced effect in any other tissue including brain (histopathology, immunohistochemistry)” value ([5]; dogs, 14 days oral gavage) was “No evidence of drug-induced effect” and the NOAEL ([5]; dogs, 14 days oral gavage, based on lacrimal gland changes at 5 mg/kg/day) was 1 mg/kg/day.
